According to US20130123168A1, “HUMANIN AND HUMANIN-ANALOGUES FOR THE MANAGEMENT OF ATHEROSCLEROSIS” (The Regents of the University of California, priority 2011, published 2013):
Entries after “also recorded” stand apart in the source; their conditions may differ.

Experiments:
NIT cells = details: cited from earlier work
[1] = tested on: atherosclerotic plaques in proximal aorta; assay: Morphometric analysis of plaque size in proximal aorta cross sections; assay type: in vivo, mice; details: IP 0.4 mg/kg/day, 16 weeks
[2] = tested on: atherosclerotic plaque in the aortic arch; assay: TUNEL staining of apoptotic cells in plaques of the aortic arch; assay type: in vivo; details: Group 4: ApoE-deficient mice, high cholesterol diet
Description: The effect of HNGF6A on mice was studied in 4 different animal groups (n=12 per group); Group 1: C57BL/6 feed normal diet+intraperitoneal (IP) saline, Group 2: C57BL/6 feed normal diet+IP HNGF6A, Group 3: ApoE-deficient feed high cholesterol diet+IP saline, and Group 4: ApoE-deficient feed high cholesterol diet+IP HNGF6A (Group 4). Experiment was conducted over the course of 16 weeks. Female C57BL/6 mice and Apo E-deficient mice were obtained at the age of 4 weeks from Jackson Laboratory Animals had free access to water, were maintained at 24° C., and kept at a 12 hr light/dark cycle. Depending on the study group, the mice were treated with a normal diet or high cholesterol diet (HC, 0.15% cholesterol and 42% milk fat by weight, TD88137 or “Western diet”; Harlan Teklad) and received intraperitoneal injection (IP) of saline or HNGF6A (glycine variant of HN, 0.4 mg/kg/day, Peptide International, Louisville, Ky.) for 16 weeks. […] Blood samples were collected by cardiac puncture. Terminal deoxynucleotidyl transferase dUTP nick end labeling (TUNEL) was performed using the in situ Apoptosis Detection Kit (S7100-KIT; Chemicon). The procedure was performed following the manufacturers' protocol. […] The number of positive cells in atherosclerotic plaque was counted using x400 magnification. […] Data was expressed as mean±SEM. […]

[3] = tested on: human aortic endothelial cells (HAECs); assay: Ox-LDL induced ROS production, dihydroethidium (DHE) fluorescence; assay type: cell-based
Description: Prior studies have reported that treatment of vascular endothelial cells with oxidized low density lipoprotein (LDL) stimulates reactive oxygen species (ROS) formation. To test whether humanin (HN) affects Ox-LDL induced ROS production in endothelial cells, the fluorescent probe dihydroethidium was utilized in order to detect superoxide in living cells. DHE fluorescence was measured in human aortic endothelial cells (HAECs) preincubated with HN and subsequently exposed to Ox-LDL. Intracellular ROS production was monitored by following the conversion of the oxidant sensitive dye dihydroethidine to fluorescent ethidium.
To accomplish this, as described in Bachar et al. (2010) Cardiovasc. Res. 88(2):360-6 (incorporated by reference in its entirety). […] Fluorescent images were then taken with an inverted fluorescent microscope (Olympus IX70) at 15× magnification using appropriate filters fro ethidium fluorescence. Ten to twelve non-overlapping images in each culture dish were acquired and quantified by image analysis using Metamorph software (Molecular Devices). Only those cells whose fluorescence exceeded twice the basal level of fluorescence of non-treated cells were used for quantification of DHE fluorescence. Values are expressed as average relative fluorescence units for n≧100 cells per experimental condition in 2 independent experiments. […]

[4] = tested on: human aortic endothelial cells (HAECs); assay: TUNEL assay of Ox-LDL induced apoptosis in HAEC; assay type: cell-based; details: pre-incubated overnight with 0.1 μM, then 100 μg/ml Ox-LDL for 6 hours
Description: To accomplish this, a TUNEL assay was applied to measure the levels of apoptosis in HAECs treated with or without HN prior to exposure with Ox-LDL (FIG. 2). HAECs were plated on glass cover slips and incubated overnight with or without added HN (0.1 μM). The cells were then exposed to Ox-LDL (100 μg/ml; Biomedical Technologies Inc.) for 6 hours at 37° C. in the absence of HN. Apoptotic cells were quantified by TUNEL assay using the In Situ Death Detection Kit® (Roche Applied Science), mounted in SlowFade containing DAPI (Invitrogen) and observed by flourescent microscope. Apoptotic cells were defined based in morphological changes in the nuclei and the fluorescent intensity after TUNEL staining. The apoptotic index (AI)=(number of apoptotic cells)/(total number of cells)

[5] = tested on: human aortic endothelial cells (HAECs); assay: Cellular ceramide levels by HPLC/MS/MS after Ox-LDL; assay type: cell-based; details: 0.1 μM overnight, then Ox-LDL 100 μg/ml for 6 hours
Description: HAECs were plated on glass cover slips and incubated overnight with or without added HN (0.1 μM). The cells were then exposed to Ox-LDL (100 μg/ml; Biomedical Technologies Inc.) for 6 hours. Cells were then scraped into PBS, pelleted and frozen in liquid nitrogen. These samples were sent to MUSC-lipidomics core (Lipidomics Analytical Unit) for processing to detect and quantify individual ceramide species by HPLC/MS/MS.

In the case of “F6AK21A-HNG: SEQ ID NO:17 MAPRGASCLLLLTGEIDLPVARRA (listed as Homo sapiens)”, the “potency compared to humanin in promoting survival and activating STAT-3 and ERK” value (“potency compared to humanin” for short) (NIT cells) is listed as “even greater potency”.

For “HNGF6A: HN analogue, SEQ ID NO:16 MAPRGASCLLLLTGEIDLPVKRRA (listed as Homo sapiens)”, the “presence of plaque in aorta” value ([1]; Group 2: C57BL/6 mice, normal diet, 0.4 mg/kg/day) was “Plaques were not visible; also recorded: no plaque was apparent”, the plaque size ([1]; Group 4: ApoE-deficient mice, high cholesterol diet) was 0.01±0.003 mm^2 and the “numbers of apoptotic cells in plaques compared to Group 3 (in words)” value ([2]; IP) was “significantly decreased”. For the same substance, the “number of apoptotic cells in plaques in the aortic arch” value ([2]; IP 0.4 mg/kg/day, 16 weeks, mean±SEM) was 84±17 cells/mm^2 and the “potency compared to humanin” value (NIT cells) was “even greater potency”.

For “Z-FIN: SEQ ID NO:18 MAKRGLNCLPHQVSEIDLSVQKRI (listed as Homo sapiens)”, the “potency compared to humanin” value (NIT cells) is listed as “two-fold greater potency than humanin”.

For “humanin (MAPRGFSCLLLLTSEIDLPVKRRA; listed as Homo sapiens) [HN]”, the “decrease in ROS production” value ([3]; HN pretreatment overnight prior to Ox-LDL (100 μg/ml, 30 min) exposure) was “approximately 50%”, the “decrease in Ox-LDL induced ROS formation, dose dependence” value ([3]; HN titration) was “dose-dependent manner” and the “relative decrease in apoptosis compared to cells without pretreatment” value [4] was “more than 50%”. The “total cellular amount of ceramides, including C16-ceramide” value [5] was “decrease”.
